In paper PMC10671849, “Synthesis and Evaluation of Marine-Inspired Compounds Result in Hybrids with Antitrypanosomal and Antileishmanial Activities” (Marine Drugs, 2023) one finds CC50 and IC50 data, which are given here for two compounds.

Where two headings read alike, the source gives them in different places.

A short description of data set [1]: Cytotoxicity MTT assay on PMA-differentiated THP-1 macrophages. Format: cell-based. Conditions: human. The method, then:
A human leukemia cell line, THP-1 (ATCC® TIB-202™), was cultured in RPMI-1640 medium supplemented with 10% heat-inactivated fetal bovine serum (FBS), 2 mM L-glutamine, 100 IU/mL penicillin/streptomycin, and 20 mM HEPES. The cell line was maintained in a humidified incubator at 37 °C and 5% CO2 by subculture every 3 days in 20 mL of media at a concentration of 2 × 10^5/mL in a T75 flask. All cell culture reagents were purchased from Lonza-Bioscience (Morrisville, NC, USA).
The cytotoxicity effect of compounds on THP-1-derived macrophages was assessed by colorimetric MTT assay (3-(4,5-dimethylthiazol-2-yl)-2,5-diphenyl tetrazolium bromide). Briefly, THP-1 cells were suspended in RPMI complete medium at a density of 1 × 10^6 cells/mL and 100 μL/well and were seeded in a 96-well plate and differentiated into macrophages by addition of 40 ng/mL of phorbol-myristate 13-acetate (PMA, Sigma, Saint Louis, MI, USA) for 24 h, followed by replacement with fresh medium for 24 more h. Subsequently, the cells were incubated with 100 μL of compounds ranging from 100 to 12.5 μM after dilution in the RPMI complete medium. Each condition was carried out in quadruplicate. After 72 h of incubation at 37 °C and 5% CO2, the medium was removed, and 200 μL of 0.5 mg/mL MTT solution diluted in RPMI was added. The plates were incubated for an additional 4 h. Then, 160 μL of media was removed, and the same volume of 2-propanol was added. Absorbance was read at 570 nm using a Synergy 2 Multi-Mode Reader (Biotek, Winooski, VT, USA). Cytotoxicity was evaluated by the determination of the CC50 value (drug concentration that reduced the percentage of viable cells by 50%) and calculated by non-linear regression analysis using GraphPad Prism software, version 8.1.1 for Windows (GraphPad Software, San Diego, CA, USA). The results represent the average of at least three independent experiments. For each compound, the selectivity index (SI) was calculated as the ratio between cytotoxicity in THP-1 (CC50, 72 h) and activity against parasites (IC50, 72 h).

Data set [2] has as its system T. brucei Lister 427 bloodstream forms. As to the kind of experiment: Anti-T. brucei activity, resazurin-based assay on bloodstream forms. Format: cell-based, Trypanosoma brucei. Conditions: Trypanosoma brucei; bloodstream forms, 72 h incubation, resazurin; read-out: Anti-Parasitic Activity IC50 (µM) 95% CI, T. brucei. Here is the method:
T. brucei Lister 427 bloodstream forms were grown in a humidified incubator at 37 °C and 5% CO2 in complete HMI-9 medium supplemented with 10% heat-inactivated fetal bovine serum (FBS) and 100 UI/mL penicillin/streptomycin. Parasite maintenance was performed in T25 ventilated flasks by subpassage at a concentration of 1 × 10^4/mL every 2 days in T25 ventilated flasks. Luciferase-expressing L. infantum (MHOM/MA/67/ITMAP-263) axenic amastigotes expressing episomal luciferase were maintained in MAA20 [31] at 37 °C in a 5% CO2 environment with subculture every 7 days at 1 × 10^6/mL in 5-mL T25 ventilated flasks.
The compounds’ efficacy against bloodstream-stage trypomastigotes was evaluated using a resazurin-based assay. Parasites were added to 100 µL of serial dilutions of compounds in supplemented complete medium at a cell density of 5 × 10^3/mL. As a quality control, a dose–response curve for the antitrypanosomal pentamidine was included in all the assays. The final volume of the assay was 200 µL/well. Each condition was carried out in duplicate. Following 72 h of incubation at the specific conditions for parasites, 20 […] of a 0.5 mM resazurin solution was added, and the plates were incubated for a further 4 h under the same conditions. Fluorescence was measured at 544 nm and 590 nm excitation and emission wavelength, respectively, using a Synergy 2 Multi-Mode Reader (Biotek, Winooski, VT, USA). The results are shown as % of parasite growth inhibition compared to control (untreated parasites) and represent the average of at least three independent experiments. The effect was evaluated by the determination of the IC50 value (concentration required to inhibit growth in 50%) and calculated by non-linear regression curves using GraphPad Prism software, version 8.1.1 for Windows (GraphPad Software, San Diego, CA, USA).

The test system of data set [3] is L. infantum promastigotes. The data set can be described thus: Anti-Leishmania activity, resazurin-based assay. The class given is cell-based. The conditions noted are these: 72 h incubation, resazurin, highest concentration tested 40 µM, 95% CI in parentheses, read-out: Anti-Parasitic Activity IC50 (µM) 95% CI, L. infantum Promastigotes. Here is the method:
Promastigotes from the L. infantum strain (MHOM/MA/67/ITMAP-263) were grown in 5-mL T25 flasks in Schneider’s insect medium supplemented with 10% heat-inactivated fetal bovine serum (FBS), 200 U/mL penicillin/streptomycin, 6 µg/mL Phenol Red, and 5 mM HEPES. The cultures were maintained in an incubator at 27 °C and diluted to 2 × 10^5/mL every 5 days. For the assays, the parasites used were equivalent to late/log with 2 or 3 days of culture.
The compounds’ efficacy against L. infantum promastigotes was evaluated using a resazurin-based assay. Parasites were added to 100 µL of serial dilutions of compounds in supplemented complete medium at a cell density of 5 × 10^5/mL. As a quality control, a dose–response curve to the antileishmanial drug miltefosine was included in all the assays. The final volume of the assay was 200 µL/well. Each condition was carried out in duplicate. Following 72 h of incubation at the specific conditions for parasites, 20 µL of a 0.5 mM resazurin solution was added, and the plates were incubated for a further 4 h under the same conditions. Fluorescence was measured at 544 nm and 590 nm excitation and emission wavelengths, respectively, using a Synergy 2 Multi-Mode Reader (Biotek, Winooski, VT, USA). Results are shown as % of parasite growth inhibition compared to control (untreated parasites) and represent the average of at least three independent experiments. The effect was evaluated by the determination of the IC50 value (concentration required to inhibit growth in 50%) and was calculated by non-linear regression curves using GraphPad Prism software, version 8.1.1 for Windows (GraphPad Software, San Diego, CA, USA).

Turning to `N=C(N)c1ccc(OCCCCCOc2ccc(C(=N)N)cc2)cc1` [Pentamidine, pentamidine, reference compound], the CC50 at 72 h in data set [1] is 37.7 µM. Moreover, the IC50 in data set [2] was determined as 0.0056 µM.

`CCCCCCCCCCCCCCCCOP(=O)([O-])OCC[N+](C)(C)C` [Miltefosine, miltefosine, reference compound]: the IC50 in data set [3] was 11 µM. In addition, the CC50 at 72 h in data set [1] (PMA-differentiated THP-1 macrophages, 72 h, MTT, 100 to 12.5 µM tested, read-out: Cytotoxicity CC50 (µM) 95% CI, THP-1) turned out to be 29.4 µM.
